Measured values from publication PMC2705520, “Inactivation and Unfolding of the Hyperthermophilic Inorganic Pyrophosphatase from Thermus thermophilus by Sodium Dodecyl Sulfate” (2009).
Where a name gives a salt, the structure may show the parent alone.

B1: Inorganic pyrophosphatase (T-PPase) (Thermus thermophilus HB27) (protein)
chain: MANLKSLPVGDKAPEVVHMVIEVPRGSGNKYEYDPDLGAIKLDRVLPGAQFYPGDYGFIPSTLAEDGDPLDGLVLSTYPLLPGVVVEVRVVGLLLMEDEKGGDAKVIGVVAEDQRLDHIQDIGDVPEGVKQEIQHFFETYKALEAKKGKWVKVTGWRDRKAALEEVRACIARYKG

What was measured:
[1] = molecular target: T1, Inorganic pyrophosphatase (T-PPase) (Thermus thermophilus, UniProt Q72H95); experiment: PPase activity assay (phosphomolybdate); Lineweaver-Burk and secondary replots, mixed type reversible inhibition; type: biochemical
T1 construct: gene ppa
T1 sequence (Q72H95 1-175): B1 chain
From the text: PPase activity assay (phosphomolybdate); Lineweaver-Burk and secondary replots, mixed type reversible inhibition on Inorganic pyrophosphatase (T-PPase) | Then the apparent inhibition constant could be calculated from Equations.

purified protein = substrate: O=P(O)(O)OP(=O)(O)O; experiment: purified protein; conditions: Mg2+ active site cavity formed by conserved polar residues, with Mg2+ ions

Row | Molecule | Ki [1] | Km (purified protein)
1 | CCCCCCCCCCCCOS(=O)(=O)O [Sodium dodecyl sulfate] | 3.4 mM | 
2 | B1 |  | 420 ± 40 µM
